{"source": "patent US20200017496A1", "about": "(priority 2017, published 2020)", "key": {"[1]": {"tested_on": "Enterobacter cloacae (ECL) isolates", "assay": "MIC of compounds alone and combined with antibacterials, broth microdilution (CLSI)", "type": "cell-based", "conditions": "for MIC: Enterobacter cloacae; for MIC ATB in combination: antibacterial combined with AF1 @ 4 μg/mL", "outline": "(§1)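 Log-phase bacteria at a final 5·10^5 CFU/mL in cation-adjusted Mueller-Hinton broth were incubated 16-20 h at 35° C in ambient air with compound alone or with an antibacterial. MIC was the lowest concentration preventing visible growth; combination MIC of the antibacterial was read at each compound concentration.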"}, "[2]": {"tested_on": "Escherichia coli (ECO) isolates", "assay": "MIC of compounds alone and combined with antibacterials, broth microdilution (CLSI)", "type": "cell-based", "conditions": "for MIC: Escherichia coli", "outline": "as §1"}}, "note": "Like-named read-outs stand apart in the source and are kept apart here.", "data": [{"smiles": "CC1(C)S[C@@H]2[C@H](NC(=O)[C@H](N)c3ccc(O)cc3)C(=O)N2[C@H]1C(=O)O", "note": "[AMX, Amoxicillin]", "values": [{"measurement": "MIC", "setting": "[1]; strain ECL UFR195 (TEM-1, CTX-M-15, OXA-1, OXA-48), CLA @ 4 μg/ml+ ATB", "value": "> 128", "unit": "µg/mL"}, {"measurement": "MIC", "setting": "[1]; strain ECL UFR196 (TEM-1, CTX-M-15, OXA-1, OXA-48), ATB alone", "value": "> 128", "unit": "µg/mL"}, {"measurement": "MIC", "setting": "[1]; strain ECL UFR196 (TEM-1, CTX-M-15, OXA-1, OXA-48), CLA @ 4 μg/ml+ ATB", "value": "> 128", "unit": "µg/mL"}, {"measurement": "MIC", "setting": "[1]; strain ECL UFR200 (TEM-1, SHV-12, KPC-2), ATB alone", "value": "> 128", "unit": "µg/mL"}, {"measurement": "MIC", "setting": "[1]; strain ECL UFR200 (TEM-1, SHV-12, KPC-2), CLA @ 4 μg/ml+ ATB", "value": "> 128", "unit": "µg/mL"}, {"measurement": "MIC ATB in combination", "setting": "[1]; strain ECL UFR195", "value": 256, "unit": "µg/mL"}, {"measurement": "MIC ATB in combination", "setting": "[1]; strain ECL UFR197", "value": 256, "unit": "µg/mL"}, {"measurement": "MIC ATB in combination", "setting": "[2]", "value": 128, "unit": "µg/mL"}, {"measurement": "MIC ATB in combination", "setting": "[2]; ECO 5302, AF1 @ 4 μg/mL", "value": 256, "unit": "µg/mL"}, {"measurement": "MIC ATB in combination", "setting": "[2]; ECO 131119, AF1 @ 4 μg/mL", "value": 16, "unit": "µg/mL"}, {"measurement": "MIC ATB in combination", "setting": "[2]; ECO 180070, AF1 @ 4 μg/mL", "value": "<=1 μg/mL"}, {"measurement": "MIC ATB in combination", "setting": "[2]; ECO 190314, AF1 @ 4 μg/mL", "value": "<=1 μg/mL"}, {"measurement": "MIC ATB in combination", "setting": "[2]; ECO 190317, AF1 @ 4 μg/mL", "value": 64, "unit": "µg/mL"}, {"measurement": "MIC ATB in combination", "setting": "[2]; ECO 190457, AF1 @ 4 μg/mL", "value": 64, "unit": "µg/mL"}, {"measurement": "MIC ATB in combination", "setting": "[2]; ECO 190549, AF1 @ 4 μg/mL", "value": "<=1 μg/mL"}, {"measurement": "MIC ATB in combination", "setting": "[2]; ECO 200159, AF1 @ 4 μg/mL", "value": "<=1 μg/mL"}, {"measurement": "MIC ATB in combination", "setting": "[2]; ECO 200259, AF1 @ 4 μg/mL", "value": "<=1 μg/mL"}, {"measurement": "MIC ATB in combination", "setting": "[2]; ECO 200344, AF1 @ 4 μg/mL", "value": "<=1 μg/mL"}, {"measurement": "MIC ATB in combination", "setting": "[2]; ECO 260096, AF1 @ 4 μg/mL", "value": "<=1 μg/mL"}, {"measurement": "MIC ATB in combination", "setting": "[2]; ECO 260304, AF1 @ 4 μg/mL", "value": "<=1 μg/mL"}, {"measurement": "MIC ATB in combination", "setting": "[2]; ECO 260508, AF1 @ 4 μg/mL", "value": 64, "unit": "µg/mL"}, {"measurement": "MIC ATB in combination", "setting": "[2]; ECO RGN238, AF1 @ 4 μg/mL", "value": 256, "unit": "µg/mL"}, {"measurement": "MIC ATB in combination", "setting": "[2]; ECO UFR15, AF1 @ 4 μg/mL", "value": 16, "unit": "µg/mL"}, {"measurement": "MIC ATB in combination", "setting": "[2]; ECO UFR18, AF1 @ 4 μg/mL", "value": 64, "unit": "µg/mL"}, {"measurement": "MIC ATB in combination", "setting": "[2]; ECO UFR19, AF1 @ 4 μg/mL", "value": 64, "unit": "µg/mL"}, {"measurement": "MIC ATB in combination", "setting": "[2]; ECO UFR61O, AF1 @ 4 μg/mL", "value": 64, "unit": "µg/mL"}, {"measurement": "MIC ATB in combination", "setting": "[2]; ECO UFR62, AF1 @ 4 μg/mL", "value": 16, "unit": "µg/mL"}, {"measurement": "MIC ATB in combination", "setting": "[2]; ECO UFR86, AF1 @ 4 μg/mL", "value": 2, "unit": "µg/mL"}, {"measurement": "MIC ATB in combination", "setting": "[2]; ECO UFR174, AF1 @ 4 μg/mL", "value": 32, "unit": "µg/mL"}, {"measurement": "MIC ATB in combination", "setting": "[2]; ECO UFR175, AF1 @ 4 μg/mL", "value": 32, "unit": "µg/mL"}, {"measurement": "MIC ATB in combination", "setting": "[2]; ECO UFR176, AF1 @ 4 μg/mL", "value": 32, "unit": "µg/mL"}, {"measurement": "MIC ATB in combination", "setting": "[2]; ECO UFR184, AF1 @ 4 μg/mL", "value": 32, "unit": "µg/mL"}, {"measurement": "MIC ATB in combination", "setting": "[2]; ECO UFR185, AF1 @ 4 μg/mL", "value": 256, "unit": "µg/mL"}, {"measurement": "MIC ATB in combination", "setting": "[2]; ECO UFR186, AF1 @ 4 μg/mL", "value": 16, "unit": "µg/mL"}, {"measurement": "MIC ATB in combination", "setting": "[2]; ECO UFR187, AF1 @ 4 μg/mL", "value": 16, "unit": "µg/mL"}, {"measurement": "MIC ATB in combination", "setting": "[2]; ECO UFR189, AF1 @ 4 μg/mL", "value": 4, "unit": "µg/mL"}, {"measurement": "MIC ATB in combination", "setting": "[2]; ECO UFR190, AF1 @ 4 μg/mL", "value": 8, "unit": "µg/mL"}, {"measurement": "MIC ATB in combination", "setting": "[2]; ECO UFR191, AF1 @ 4 μg/mL", "value": 8, "unit": "µg/mL"}, {"measurement": "MIC ATB in combination", "setting": "[2]; ECO UFR207, AF1 @ 4 μg/mL", "value": 32, "unit": "µg/mL"}, {"measurement": "MIC ATB in combination", "setting": "[2]; ECO UFR208, AF1 @ 4 μg/mL", "value": 256, "unit": "µg/mL"}, {"measurement": "MIC ATB in combination", "setting": "[2]; ECO UFR209, AF1 @ 4 μg/mL", "value": 4, "unit": "µg/mL"}, {"measurement": "MIC ATB in combination", "setting": "[2]; ECO UFR210, AF1 @ 4 μg/mL", "value": "<=1 μg/mL"}, {"measurement": "MIC ATB in combination", "setting": "[2]; ECO UFR211, AF1 @ 4 μg/mL", "value": "<=1 μg/mL"}, {"measurement": "MIC ATB in combination", "setting": "[2]; ECO UFR212, AF1 @ 4 μg/mL", "value": 64, "unit": "µg/mL"}, {"measurement": "MIC ATB in combination", "setting": "[2]; ECO UFR218, AF1 @ 4 μg/mL", "value": 8, "unit": "µg/mL"}, {"measurement": "MIC", "setting": "[2]; strain ECO 131119 (TEM-1, OXA-48), ATB alone", "value": "> 1020", "unit": "µg/mL"}, {"measurement": "MIC", "setting": "[2]; strain ECO 131119 (TEM-1, OXA-48), CLA @ 4 μg/ml+ ATB", "value": "> 512", "unit": "µg/mL"}, {"measurement": "MIC", "setting": "[2]; strain ECO 180070 (TEM-1, CTX-M-15), CLA @ 4 μg/ml+ ATB", "value": 16, "unit": "µg/mL"}, {"measurement": "MIC", "setting": "[2]; strain ECO 190314 (CTX-M-1), CLA @ 4 μg/ml+ ATB", "value": 8, "unit": "µg/mL"}, {"measurement": "MIC", "setting": "[2]; strain ECO 190317 (TEM-1, SHV-12, CTX-M-15, OXA-1), ATB alone", "value": "> 1020", "unit": "µg/mL"}, {"measurement": "MIC", "setting": "[2]; strain ECO 190317 (TEM-1, SHV-12, CTX-M-15, OXA-1), CLA @ 4 μg/ml+ ATB", "value": 64, "unit": "µg/mL"}, {"measurement": "MIC", "setting": "[2]; strain ECO 190549 (CTX-M-1), CLA @ 4 μg/ml+ ATB", "value": 8, "unit": "µg/mL"}, {"measurement": "MIC", "setting": "[2]; strain ECO 200159 (TEM-1, CTX-M-14), CLA @ 4 μg/ml+ ATB", "value": 8, "unit": "µg/mL"}, {"measurement": "MIC", "setting": "[2]; strain ECO 200259 (CTX-M-14), CLA @ 4 μg/ml+ ATB", "value": 8, "unit": "µg/mL"}, {"measurement": "MIC", "setting": "[2]; strain ECO 200344 (CTX-M-1), CLA @ 4 μg/ml+ ATB", "value": 16, "unit": "µg/mL"}, {"measurement": "MIC", "setting": "[2]; strain ECO 260096 (CTX-M-132), CLA @ 4 μg/ml+ ATB", "value": 4, "unit": "µg/mL"}, {"measurement": "MIC", "setting": "[2]; strain ECO 260304 (CTX-M-15), CLA @ 4 μg/ml+ ATB", "value": 4, "unit": "µg/mL"}, {"measurement": "MIC", "setting": "[2]; strain ECO 260508 (TEM-1, CTX-M-15, OXA-1), CLA @ 4 μg/ml+ ATB", "value": 64, "unit": "µg/mL"}, {"measurement": "MIC", "setting": "[2]; strain ECO RGN238 (OXA-1), ATB alone", "value": "> 1020", "unit": "µg/mL"}, {"measurement": "MIC", "setting": "[2]; strain ECO UFR207 (CTX-M-15), CLA @ 4 μg/ml+ ATB", "value": 32, "unit": "µg/mL"}, {"measurement": "MIC", "setting": "[2]; strain ECO UFR209 (TEM-1, CTX-M-15), CLA @ 4 μg/ml+ ATB", "value": 32, "unit": "µg/mL"}, {"measurement": "MIC", "setting": "[2]; strain ECO UFR210 (SHV-12), CLA @ 4 μg/ml+ ATB", "value": 8, "unit": "µg/mL"}, {"measurement": "MIC", "setting": "[2]; strain ECO UFR211 (TEM-24), CLA @ 4 μg/ml+ ATB", "value": 8, "unit": "µg/mL"}, {"measurement": "MIC", "setting": "[2]; strain ECO UFR218 (TEM-1, SHV-1, CTX-M-15), CLA @ 4 μg/ml+ ATB", "value": 32, "unit": "µg/mL"}]}]}
